# Experimental data taken from patent US9023847B2, “Azaheterocyclic compounds” (Merck Patent GmbH, priority 2009, dated 2015).
# Biological target: T1, P70S6K (T412E mutant, Millipore) (Homo sapiens, UniProt P23443, T412E)
# T1 construct: purchased Millipore
# Assay: p70S6K enzyme assay
# Format: biochemical
# Settings: class symbol; 3 nM P70S6K, 24 μM ATP; read-out: IC50 (p70S6K)
# Protocol: P70S6K inhibitor compounds are diluted and plated in 96 well plates. A reaction mixture including the following components is then added to the compound plate to initiate the enzyme reaction; P70S6K (3 nM, T412E mutant, Millipore) is mixed with 24 μM ATP in an assay buffer containing 100 mM Hepes (pH 7.5), 5 mM MgCl2, 1 mM DTT, 0.015% Brij and 1 μM of the substrate peptide FITC-AHA-AKRRRLSSLRA-OH (derived from the S6 ribosomal protein sequence, FITC=fluorescein isothiocyanate, AHA=6-aminohexanoic acid). The reaction is incubated for 90 min at 25° C., before the addition of 10 mM EDTA to stop the reaction. The proportion of substrate and product (phosphorylated) peptide is analysed on a Caliper Life Sciences Lab Chip 3000, using a pressure of −1.4 psi, and upstream and downstream voltages of −3000 and −700 respectively. Product peaks are resolved before substrate peaks on the resulting chromatograms.
# T1 sequence (P23443 whole entry T412E): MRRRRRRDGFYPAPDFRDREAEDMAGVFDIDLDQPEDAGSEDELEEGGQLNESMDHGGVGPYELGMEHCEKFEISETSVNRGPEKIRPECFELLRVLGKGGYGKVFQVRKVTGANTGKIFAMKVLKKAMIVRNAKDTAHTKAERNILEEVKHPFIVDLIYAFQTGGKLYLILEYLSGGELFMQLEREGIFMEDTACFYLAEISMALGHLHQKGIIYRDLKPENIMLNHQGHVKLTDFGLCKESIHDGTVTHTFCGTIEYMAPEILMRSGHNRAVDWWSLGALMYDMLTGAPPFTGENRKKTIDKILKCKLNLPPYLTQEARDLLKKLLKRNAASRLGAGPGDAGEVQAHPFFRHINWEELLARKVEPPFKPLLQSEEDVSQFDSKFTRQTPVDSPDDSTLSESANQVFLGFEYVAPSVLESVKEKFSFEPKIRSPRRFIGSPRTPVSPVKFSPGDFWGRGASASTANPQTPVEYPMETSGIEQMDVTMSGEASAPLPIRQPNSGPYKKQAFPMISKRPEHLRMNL
row,SMILES,IC50 [µM]
1,"Cc1ccc([C@@H](CN)NC(=O)c2sccc2Nc2ccnc3[nH]ccc23)cc1 (stereo in doubt) [Example 122, 3-(1H-Pyrrolo[2,3-b]pyridin-4-ylamino)-thiophene-2-carboxylic acid (2-amino-1-p-tolyl-ethyl)-amide]",< 0.1
2,"COc1cccc([C@@H](CN)NC(=O)c2sccc2Nc2ccnc3[nH]ccc23)c1 (stereo in doubt) [Example 123, 3-(1H-Pyrrolo[2,3-b]pyridin-4-ylamino)-thiophene-2-carboxylic acid [2-amino-1-(3-methoxy-phenyl)-ethyl]-amide]",< 0.1
3,"NC[C@@H](NC(=O)c1sccc1Nc1ccnc2[nH]ccc12)c1cccc(Cl)c1 (stereo in doubt) [Example 124, 3-(1H-Pyrrolo[2,3-b]pyridin-4-ylamino)-thiophene-2-carboxylic acid [2-amino-1-(3-chloro-phenyl)-ethyl]-amide]",< 0.1
4,"NC[C@@H](NC(=O)c1sccc1Nc1ccnc2[nH]ccc12)c1ccc(Cl)c(Cl)c1 (stereo in doubt) [Example 125, 3-(1H-Pyrrolo[2,3-b]pyridin-4-ylamino)-thiophene-2-carboxylic acid [2-amino-1-(3,4-dichloro-phenyl)-ethyl]-amide]",< 0.1
5,"O=C(NCC1CCCO1)c1sccc1Nc1ccnc2[nH]ccc12 (stereo not drawn) [Example 3, 3-(1H-Pyrrolo[2,3-b]pyridin-4-ylamino)-thiophene-2-carboxylic acid (tetrahydro-furan-2-ylmethyl)-amide]",0.1 to 1
6,"O=C(c1sccc1Nc1ccnc2[nH]ccc12)N1CCCC1 [Example 4, Pyrrolidin-1-yl-[3-(1H-pyrrolo[2,3-b]pyridin-4-ylamino)-thiophen-2-yl]-methanone]",0.1 to 1
7,"CC(C)(C)OC(=O)N1CCC(NC(=O)c2sccc2Nc2ccnc3[nH]ccc23)C1 (stereo not drawn) [Example 5, 3-{[3-(1H-Pyrrolo[2,3-b]pyridin-4-ylamino)-thiophene-2-carbonyl]-amino}-pyrrolidine-1-carboxylic acid tert-butyl ester]",0.1 to 1
8,"O=C(NC1CCNC1)c1sccc1Nc1ccnc2[nH]ccc12 (stereo not drawn) [Example 6, 3-(1H-Pyrrolo[2,3-b]pyridin-4-ylamino)-thiophene-2-carboxylic acid pyrrolidin-3-ylamide]",< 0.1
9,"O=C(NCc1ccccn1)c1sccc1Nc1ccnc2[nH]ccc12 [Example 7, 3-(1H-Pyrrolo[2,3-b]pyridin-4-ylamino)-thiophene-2-carboxylic acid (pyridin-2-ylmethyl)-amide]",0.1 to 1
10,"O=C(NCc1cccnc1)c1sccc1Nc1ccnc2[nH]ccc12 [Example 8, 3-(1H-Pyrrolo[2,3-b]pyridin-4-ylamino)-thiophene-2-carboxylic acid (pyridin-3-ylmethyl)-amide]",0.1 to 1
11,"O=C(NC1CCCNC1)c1sccc1Nc1ccnc2[nH]ccc12 (stereo not drawn) [Example 9, 3-(1H-Pyrrolo[2,3-b]pyridin-4-ylamino)-thiophene-2-carboxylic acid piperidin-3-ylamide]",0.1 to 1
12,"CC(CO)NC(=O)c1sccc1Nc1ccnc2[nH]ccc12 (stereo not drawn) [Example 10, 3-(1H-Pyrrolo[2,3-b]pyridin-4-ylamino)-thiophene-2-carboxylic acid (2-hydroxy-1-methyl-ethyl)-amide]",0.1 to 1
13,"CC(O)CNC(=O)c1sccc1Nc1ccnc2[nH]ccc12 (stereo not drawn) [Example 11, 3-(1H-Pyrrolo[2,3-b]pyridin-4-ylamino)-thiophene-2-carboxylic acid (2-hydroxy-propyl)-amide]",0.1 to 1
14,"O=C(NCCOc1ccccc1)c1sccc1Nc1ccnc2[nH]ccc12 [Example 12, 3-(1H-Pyrrolo[2,3-b]pyridin-4-ylamino)-thiophene-2-carboxylic acid (2-phenoxy-ethyl)-amide]",0.1 to 1
15,"O=C(NCCC1=CCCCC1)c1sccc1Nc1ccnc2[nH]ccc12 [Example 13, 3-(1H-Pyrrolo[2,3-b]pyridin-4-ylamino)-thiophene-2-carboxylic acid (2-cyclohex-1-enyl-ethyl)-amide]",< 0.1
16,"NS(=O)(=O)c1ccc(CCNC(=O)c2sccc2Nc2ccnc3[nH]ccc23)cc1 [Example 14, 3-(1H-Pyrrolo[2,3-b]pyridin-4-ylamino)-thiophene-2-carboxylic acid [2-(4-sulfamoyl-phenyl)-ethyl]-amide]",< 0.1
17,"O=C(NCCc1c[nH]cn1)c1sccc1Nc1ccnc2[nH]ccc12 [Example 15, 3-(1H-Pyrrolo[2,3-b]pyridin-4-ylamino)-thiophene-2-carboxylic acid [2-(1H-imidazol-4-yl)-ethyl]-amide]",0.1 to 1
18,"O=C(NCCN1CCOCC1)c1sccc1Nc1ccnc2[nH]ccc12 [Example 16, 3-(1H-Pyrrolo[2,3-b]pyridin-4-ylamino)-thiophene-2-carboxylic acid (2-morpholin-4-yl-ethyl)-amide]",0.1 to 1

row,SMILES,IC50 [µM]
1,"O=C(NCCc1ccncc1)c1sccc1Nc1ccnc2[nH]ccc12 [Example 17, 3-(1H-Pyrrolo[2,3-b]pyridin-4-ylamino)-thiophene-2-carboxylic acid (2-pyridin-4-yl-ethyl)-amide]",0.1 to 1
2,"O=C(NCCc1cccc(C(F)(F)F)c1)c1sccc1Nc1ccnc2[nH]ccc12 [Example 18, 3-(1H-Pyrrolo[2,3-b]pyridin-4-ylamino)-thiophene-2-carboxylic acid [2-(3-trifluoromethyl-phenyl)-ethyl]-amide]",< 0.1
3,"O=C(NCCc1ccccn1)c1sccc1Nc1ccnc2[nH]ccc12 [Example 19, 3-(1H-Pyrrolo[2,3-b]pyridin-4-ylamino)-thiophene-2-carboxylic acid (2-pyridin-2-yl-ethyl)-amide]",0.1 to 1
4,"O=C(NCCc1cccc(Cl)c1)c1sccc1Nc1ccnc2[nH]ccc12 [Example 20, 3-(1H-Pyrrolo[2,3-b]pyridin-4-ylamino)-thiophene-2-carboxylic acid [2-(3-chloro-phenyl)-ethyl]-amide]",< 0.1
5,"O=C(NCCc1cccs1)c1sccc1Nc1ccnc2[nH]ccc12 [Example 21, 3-(1H-Pyrrolo[2,3-b]pyridin-4-ylamino)-thiophene-2-carboxylic acid (2-thiophen-2-yl-ethyl)-amide]",< 0.1
6,"O=C(NCCc1cccc(F)c1)c1sccc1Nc1ccnc2[nH]ccc12 [Example 22, 3-(1H-Pyrrolo[2,3-b]pyridin-4-ylamino)-thiophene-2-carboxylic acid [2-(3-fluoro-phenyl)-ethyl]-amide]",< 0.1
7,"O=C(NCCc1ccc(F)cc1)c1sccc1Nc1ccnc2[nH]ccc12 [Example 23, 3-(1H-Pyrrolo[2,3-b]pyridin-4-ylamino)-thiophene-2-carboxylic acid [2-(4-fluoro-phenyl)-ethyl]-amide]",< 0.1
8,"O=C(NCCSCc1ccco1)c1sccc1Nc1ccnc2[nH]ccc12 [Example 24, 3-(1H-Pyrrolo[2,3-b]pyridin-4-ylamino)-thiophene-2-carboxylic acid [2-(furan-2-ylmethylsulfanyl)-ethyl]-amide]",< 0.1
9,"Cc1ccccc1CCNC(=O)c1sccc1Nc1ccnc2[nH]ccc12 [Example 25, 3-(1H-Pyrrolo[2,3-b]pyridin-4-ylamino)-thiophene-2-carboxylic acid (2-o-tolyl-ethyl)-amide]",< 0.1
10,"COc1cccc(CCNC(=O)c2sccc2Nc2ccnc3[nH]ccc23)c1 [Example 26, 3-(1H-Pyrrolo[2,3-b]pyridin-4-ylamino)-thiophene-2-carboxylic acid [2-(3-methoxy-phenyl)-ethyl]-amide]",< 0.1
11,"O=C(NCCc1ccc(Br)cc1)c1sccc1Nc1ccnc2[nH]ccc12 [Example 27, 3-(1H-Pyrrolo[2,3-b]pyridin-4-ylamino)-thiophene-2-carboxylic acid [2-(4-bromo-phenyl)-ethyl]-amide]",< 0.1
12,"COc1ccc(CCNC(=O)c2sccc2Nc2ccnc3[nH]ccc23)cc1 [Example 28, 3-(1H-Pyrrolo[2,3-b]pyridin-4-ylamino)-thiophene-2-carboxylic acid [2-(4-methoxy-phenyl)-ethyl]-amide]",< 0.1
13,"O=C(NCCNCc1ccccc1)c1sccc1Nc1ccnc2[nH]ccc12 [Example 29, 3-(1H-Pyrrolo[2,3-b]pyridin-4-ylamino)-thiophene-2-carboxylic acid (2-benzylamino-ethyl)-amide]",< 0.1
14,"O=C(NCc1cccc(Cl)c1)c1sccc1Nc1ccnc2[nH]ccc12 [Example 30, 3-(1H-Pyrrolo[2,3-b]pyridin-4-ylamino)-thiophene-2-carboxylic acid 3-chloro-benzylamide]",< 0.1
15,"O=C(NCCCCO)c1sccc1Nc1ccnc2[nH]ccc12 [Example 31, 3-(1H-Pyrrolo[2,3-b]pyridin-4-ylamino)-thiophene-2-carboxylic acid (4-hydroxy-butyl)-amide]",0.1 to 1
16,"CC(=O)NCCCCNC(=O)c1sccc1Nc1ccnc2[nH]ccc12 [Example 32, 3-(1H-Pyrrolo[2,3-b]pyridin-4-ylamino)-thiophene-2-carboxylic acid (4-acetylamino-butyl)-amide]",0.1 to 1
17,"CCOC(=O)CCNC(=O)c1sccc1Nc1ccnc2[nH]ccc12 [Example 33, 3-{[3-(1H-Pyrrolo[2,3-b]pyridin-4-ylamino)-thiophene-2-carbonyl]-amino}-propionic acid ethyl ester]",0.1 to 1
18,"O=C(NCCNc1ccccc1)c1sccc1Nc1ccnc2[nH]ccc12 [Example 34, 3-(1H-Pyrrolo[2,3-b]pyridin-4-ylamino)-thiophene-2-carboxylic acid (2-phenylamino-ethyl)-amide]",< 0.1
